Test results published in US8440625B2, “Secreted protein acidic and rich in cysteine (SPARC) as chemotherapeutic sensitizers” (University of British Columbia, priority 2006, dated 2013).
Entries after “also recorded” stand apart in the source; their conditions may differ.

B1: Secreted protein acidic and rich in cysteine (protein, listed as Homo sapiens)
chain: MRAWIFFLLCLAGRALAAPQQEALPDETEVVEETVAEVTEVSVGANPVQVEVGEFDDGAEETEEEVVAENPCQNHHCKHGKVCELDENNTPMCVCQDPTSCPAPIGEFEKVCSNDNKTFDSSCHFFATKCTLEGTKKGHKLHLDYIGPCKYIPPCLDSELTEFPLRMRDWLKNVLVTLYERDEDNNLLTEKQKLRVKKIHENEKRLEAGDHPVELLARDFEKNYNMYIFPVHWQFGQLDQHPIDGYLSHTELAPLRAPLIPMEHCTTRFFETCDLDNDKYIALDEWAGCFGIKQKDIDKDLVI
notes: 303 amino acid SPARC protein, also known as osteonectin

How the values were obtained:
[1] = system: MIP 101 cells; test: Peptide assay, cell viability (MTS), 5FU sensitive cells; assay type: cell-based; settings: for cell viability: 96 or 200 μg/ml
Method: (§1) Sensitive MIP 101 and resistant MIP/5FU cells were seeded at a density of 8,000 cells/well (96-well plate) in DMEM supplemented with 10% FBS, 1% penicillin/streptomycin. After incubation at 37° C. with 5% CO2 for 48 hrs, the media was removed and fresh serum-free conditioned medium (VP-SFM, Invitrogen) containing the peptide of interest was incubated for an additional 48 hrs in the presence or absence of 500 μM 5-FU. Cell viability was assessed by MTS assay.
(§2) Peptides were custom synthesized by Sigma. Peptides A, A1, A2, A3 were dissolved in 0.1% DMSO. Peptides B8, B14, B8-scramble and B14-scramble were dissolved in PBS. For the MTS cell viability assay, a dose response curve was obtained using a “high” peptide concentration of 200 μg/ml, and a “low” peptide concentration of […].
(§3) For the MTS assay, 3-(4,5-dimethylthiazol-2-yl)-5-(3-carboxy-methoxyphenyl)-2-(4-sulfophenyl)-2H-tetrazolium inner salt (MTS) and phenazine methosulfate (PMS), purchased from Promega (Madison, Wis.), were mixed in the proportions 2:0.92 μg/ml, and 25 μl of the mixture was added to each well. After incubation at 37° C. with 5% CO2 for 2 h, the absorbance of each well at 490 nm was measured in a 96-well plate reader (Versa Max, version 4.8, Molecular Devices Co.) according to the manufacturer's instructions. Cell viability was expressed as a percentage of control.

[2] = system: MIP/5FU cells; test: Peptide assay, cell viability (MTS), 5FU resistant cells; assay type: cell-based; settings: for cell viability / sensitivity to 5-FU: peptide 96 or 200 μg/ml plus 5-FU 500 μM, compared to 5-FU alone
Method: (§4) Resistant MIP101 cells were developed following long-term incubation with incremental concentrations of 5 fluorouracil (5-FU) (10-500 uM), irinotecan (CPT) (1-50 uM; Pharmacia), cisplatin (CIS) (1-100 uM) or etoposide (ETO) (0.1-5 uM: Sigma-Aldrich). The concentration of each agent was increased 10% every 2 weeks for a 6 month period.
as §1, §2, §3

[3] = system: MIP/CPT cells; test: Transient transfection of SPARC fragments, cell viability (MTS) with irinotecan, resistant cells; assay type: cell-based; settings: cells transfected with control (empty vector), 500 uM CPT-11
Method: Polynucleotide fragments corresponding to SEQ ID NO: 2, SEQ ID NO: 4 or SEQ ID NO: 6 were amplified by PCR and inserted into the pSecTag vector (Invitrogen), and verified by sequencing.
Colorectal cell lines MIP101 and MIP/CPT cells were maintained in Dulbecco's modified Eagle's medium (DMEM) (Invitrogen) supplemented with 10% fetal bovine serum (FBS) (Invitrogen), 1% penicillin/streptomycin (Invitrogen) at 37° C. and 5% CO2.
as §4
Transient transfections were performed as previously described (Tai TC et al., 2001. J Neurochem; 76:1851-9) Briefly, MIP 101 colorectal cancer cells and resistant MIP/CPT cells grown to 50-60% confluency in 96-well tissue culture plates were transfected with 1.0 μg of vector (control) or vector+SPARC fragments using PEI transfection (Tai, T. C. et al., 2002. Mol Pharmacol 61:1385-92). […] Cell proliferation was assessed by MTS assay (Promega). […]

[4] = system: resistant tumours; settings: protein administered; response of resistant tumours to 5-fluorouracil, irinotecan, cisplatin or etoposide; cited from earlier work
[5] = peptide alone, high concentration (200 μg/ml)
[6] = peptide high concentration (200 μg/ml) in combination with 5-FU 500 μM

Molecule | % cell viability [1, 5] | % cell viability [1, 6] | % cell viability [2, 5] | % cell viability [2, 6] | further results
A1: first 17 amino acids of the full length SPARC protein: MRAWIFFLLCLAGRALA (listed as Homo sapiens) [Peptide A1] | did not significantly affect | did not significantly affect | did not significantly affect | did not significantly affect | 
CCc1c2c(nc3ccc(OC(=O)N4CCC(N5CCCCC5)CC4)cc13)-c1cc3c(c(=O)n1C2)COC(=O)[C@]3(O)CC [CPT-11, irinotecan] |  |  |  |  | cell viability [3]: remained viable
B14: SPARC peptide CQNHHCKHGKVCELDENNTPMCVCQDPTSCP (SEQ ID NO: 9) (listed as Homo sapiens) [Peptide B14] |  |  |  |  | cell viability ([1]; peptide alone): did not significantly affect viability; cell viability / sensitivity to 5-FU [2]: cell viability decreased; cell viability ([2]; peptide alone, 96 or 200 μg/ml): did not significantly affect viability
O=c1[nH]cc(F)c(=O)[nH]1 [Peptide 5-FU, 5-fluorouracil, reference compound] |  |  |  |  | cell viability ([2]; 5-FU alone (500 μM)): greater viability; also recorded: no effect on cell viability
A: first 17 amino acids of full length SPARC with additional N-terminal residues: ESALCLPPACLPLRVPSTMRAWLFFLLCLAGRALA (ESALCLPPACLPLRVPSTMRAWIFFLLCLAGRALA; listed as Homo sapiens) | did not significantly affect | did not significantly affect | did not significantly affect | did not significantly affect | 
B8-SCR: scrambled B8 negative control peptide QPLEAVQPTAVEEDAEVETTEEV (B8 scrambled) [Peptide B8-SCR, reference compound] | did not significantly affect | did not significantly affect | did not significantly affect | did not significantly affect | 
A3: first 17 amino acids of SPARC with additional N-terminal residues: CLPPACLPLRVPSTMRAWIFFLLCLAGRALA (listed as Homo sapiens) [Peptide A3] | did not significantly affect | did not significantly affect | did not significantly affect | did not significantly affect | 
H-APQQEALPDETEVVEETVAEVTE-OH [Peptide B8] |  |  |  |  | cell viability ([1]; peptide alone): did not affect cell viability; cell viability / sensitivity to 5-FU [2]: increasing sensitivity of the resistant cells; cell viability ([2]; peptide alone, 96 or 200 μg/ml): did not affect cell viability
A2: first 17 amino acids of SPARC with additional N-terminal residues: ACLPLRVPSTMRAWIFFLLCLAGRALA (listed as Homo sapiens) [Peptide A2] | did not significantly affect | did not significantly affect | did not significantly affect | did not significantly affect | 
B1 |  |  |  |  | chemosensitizing activity [4]: chemosensitizing activity has been demonstrated
